From patent publication US7635572B2, “Methods for conducting assays for enzyme activity on protein microarrays” (Life Technologies Corporation, priority 2004, dated 2009)
Like-named read-outs stand apart in the source and are kept apart here.

Columns and labels:
Test in all cases: Further analysis of a plurality of inhibitors and a plurality of kinases on microarray (Example IX, Table 5);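 also: inhibition of each kinase by the inhibitors is given as a qualitative level; level 0 no or unclear inhibition to Level 2 substantial inhibition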
Type in all cases: biochemical
[1] = molecular target: T1, plurality of kinases (Table 5) (Homo sapiens, UniProt Q13043); details: plate D6
T1 sequence (Q13043 1-487): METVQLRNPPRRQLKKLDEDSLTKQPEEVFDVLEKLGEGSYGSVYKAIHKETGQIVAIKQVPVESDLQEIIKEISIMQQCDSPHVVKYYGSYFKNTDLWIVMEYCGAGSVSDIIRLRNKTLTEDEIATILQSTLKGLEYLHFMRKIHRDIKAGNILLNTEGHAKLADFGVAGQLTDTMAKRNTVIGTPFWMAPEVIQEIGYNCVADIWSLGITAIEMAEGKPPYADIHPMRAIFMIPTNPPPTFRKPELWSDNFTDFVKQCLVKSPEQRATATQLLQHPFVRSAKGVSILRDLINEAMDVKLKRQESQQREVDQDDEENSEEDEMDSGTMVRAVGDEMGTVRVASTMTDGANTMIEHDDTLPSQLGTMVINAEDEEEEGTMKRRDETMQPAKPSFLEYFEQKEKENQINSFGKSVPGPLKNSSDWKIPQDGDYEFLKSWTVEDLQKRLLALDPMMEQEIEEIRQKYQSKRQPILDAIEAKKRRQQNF

[2] = molecular target: plurality of kinases (Table 5) (Homo sapiens, UniProt P06241)
[3] = molecular target: plurality of kinases (Table 5) (Homo sapiens, UniProt P11309)
[4] = molecular target: plurality of kinases (Table 5) (Homo sapiens, UniProt Q9Y6R4); details: plate E7; inhibitor 100 uM
[5] = molecular target: plurality of kinases (Table 5) (Homo sapiens, UniProt Q14289); details: plate G5
[6] = molecular target: T2, plurality of kinases (Table 5) (Homo sapiens, UniProt Q9UQB9); details: plate G11; inhibitor 100 uM
T2 sequence (Q9UQB9 1-309): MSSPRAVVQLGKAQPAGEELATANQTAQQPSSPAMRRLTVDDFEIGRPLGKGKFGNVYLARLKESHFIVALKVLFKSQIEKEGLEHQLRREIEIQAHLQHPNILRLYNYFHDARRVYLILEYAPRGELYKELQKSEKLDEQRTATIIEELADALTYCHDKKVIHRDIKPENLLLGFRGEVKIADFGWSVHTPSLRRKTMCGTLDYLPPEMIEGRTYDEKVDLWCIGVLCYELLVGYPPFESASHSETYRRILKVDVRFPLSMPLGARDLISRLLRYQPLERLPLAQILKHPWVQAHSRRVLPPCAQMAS

[7] = molecular target: plurality of kinases (Table 5) (Homo sapiens, UniProt Q8IVW4); details: plate F12; inhibitor 100 uM
[8] = molecular target: T3, plurality of kinases (Table 5) (Homo sapiens, UniProt O14965); details: plate C6
T3 sequence (O14965 1-403): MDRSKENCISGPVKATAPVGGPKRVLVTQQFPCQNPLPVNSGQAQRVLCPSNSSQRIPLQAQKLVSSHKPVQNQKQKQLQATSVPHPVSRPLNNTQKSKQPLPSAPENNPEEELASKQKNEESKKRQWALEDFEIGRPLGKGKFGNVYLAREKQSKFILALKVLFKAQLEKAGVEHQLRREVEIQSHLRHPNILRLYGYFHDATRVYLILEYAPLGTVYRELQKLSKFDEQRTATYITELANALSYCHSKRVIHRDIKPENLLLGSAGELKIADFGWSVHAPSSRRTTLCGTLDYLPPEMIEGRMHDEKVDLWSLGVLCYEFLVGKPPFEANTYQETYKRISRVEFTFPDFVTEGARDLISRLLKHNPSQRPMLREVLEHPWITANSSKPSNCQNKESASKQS

[9] = molecular target: plurality of kinases (Table 5) (Homo sapiens, UniProt Q9UIK4); details: plate H3
[10] = molecular target: T4, plurality of kinases (Table 5) (Homo sapiens, UniProt Q9UHD2); details: plate G1; inhibitor 100 uM
T4 sequence (Q9UHD2 1-729): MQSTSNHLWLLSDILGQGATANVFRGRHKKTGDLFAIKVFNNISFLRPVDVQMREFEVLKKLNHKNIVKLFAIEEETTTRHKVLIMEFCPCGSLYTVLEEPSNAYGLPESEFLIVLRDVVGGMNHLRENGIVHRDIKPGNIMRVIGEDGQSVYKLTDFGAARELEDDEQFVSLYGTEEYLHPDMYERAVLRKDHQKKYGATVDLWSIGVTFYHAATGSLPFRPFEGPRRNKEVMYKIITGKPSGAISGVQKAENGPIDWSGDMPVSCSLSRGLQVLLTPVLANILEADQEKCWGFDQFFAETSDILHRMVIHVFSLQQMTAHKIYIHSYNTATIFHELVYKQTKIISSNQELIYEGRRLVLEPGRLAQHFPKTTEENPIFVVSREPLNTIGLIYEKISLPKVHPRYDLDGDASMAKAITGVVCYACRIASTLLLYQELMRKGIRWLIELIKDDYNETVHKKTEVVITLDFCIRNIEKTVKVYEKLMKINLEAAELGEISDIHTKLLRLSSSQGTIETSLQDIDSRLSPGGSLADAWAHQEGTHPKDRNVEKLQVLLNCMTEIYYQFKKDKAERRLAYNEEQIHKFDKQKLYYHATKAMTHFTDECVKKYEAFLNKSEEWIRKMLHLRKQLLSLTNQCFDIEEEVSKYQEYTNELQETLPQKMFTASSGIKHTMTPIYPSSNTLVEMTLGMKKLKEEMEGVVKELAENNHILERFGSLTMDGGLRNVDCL

[11] = plate A4, Domain 0, inhibitor 100 uM

Chain of plurality of kinases (Table 5) (Homo sapiens, UniProt Q8IVW4) (Q8IVW4 whole entry): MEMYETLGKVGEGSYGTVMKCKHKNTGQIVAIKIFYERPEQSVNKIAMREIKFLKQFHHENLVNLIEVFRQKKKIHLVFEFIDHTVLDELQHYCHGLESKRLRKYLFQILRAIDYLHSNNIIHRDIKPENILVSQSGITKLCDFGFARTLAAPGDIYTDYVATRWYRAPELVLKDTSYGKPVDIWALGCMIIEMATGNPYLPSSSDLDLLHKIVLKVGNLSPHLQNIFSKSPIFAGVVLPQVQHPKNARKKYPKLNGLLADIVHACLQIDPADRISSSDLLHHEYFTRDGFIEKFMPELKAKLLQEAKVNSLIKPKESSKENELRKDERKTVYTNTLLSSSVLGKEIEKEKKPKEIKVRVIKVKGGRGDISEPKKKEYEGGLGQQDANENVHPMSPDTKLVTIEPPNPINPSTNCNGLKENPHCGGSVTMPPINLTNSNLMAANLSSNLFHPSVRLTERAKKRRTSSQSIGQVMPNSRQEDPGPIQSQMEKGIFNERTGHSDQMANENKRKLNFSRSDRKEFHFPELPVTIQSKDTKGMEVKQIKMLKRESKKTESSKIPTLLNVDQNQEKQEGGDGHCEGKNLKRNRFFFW
Chain of plurality of kinases (Table 5) (Homo sapiens, UniProt P11309) (P11309 whole entry): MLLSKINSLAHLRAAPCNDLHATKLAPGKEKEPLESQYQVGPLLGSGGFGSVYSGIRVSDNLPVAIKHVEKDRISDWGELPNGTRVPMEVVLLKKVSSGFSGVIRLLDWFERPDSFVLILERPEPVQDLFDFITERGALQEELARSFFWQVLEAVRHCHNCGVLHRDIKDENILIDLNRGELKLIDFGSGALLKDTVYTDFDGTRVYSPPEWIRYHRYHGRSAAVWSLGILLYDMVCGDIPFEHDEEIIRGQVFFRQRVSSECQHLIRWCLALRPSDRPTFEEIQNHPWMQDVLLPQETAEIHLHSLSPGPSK
Chain of plurality of kinases (Table 5) (Homo sapiens, UniProt Q9UIK4) (Q9UIK4 whole entry): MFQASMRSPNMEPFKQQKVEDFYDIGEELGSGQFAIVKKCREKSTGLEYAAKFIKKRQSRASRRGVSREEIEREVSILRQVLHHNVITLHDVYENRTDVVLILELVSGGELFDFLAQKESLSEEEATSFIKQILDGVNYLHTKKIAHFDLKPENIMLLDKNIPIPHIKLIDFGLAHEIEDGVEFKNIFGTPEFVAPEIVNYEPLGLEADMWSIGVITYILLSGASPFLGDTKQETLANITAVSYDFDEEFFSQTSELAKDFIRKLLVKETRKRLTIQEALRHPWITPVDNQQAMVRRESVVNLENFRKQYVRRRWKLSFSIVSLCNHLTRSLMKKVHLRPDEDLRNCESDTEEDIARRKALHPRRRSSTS
Chain of plurality of kinases (Table 5) (Homo sapiens, UniProt Q14289) (Q14289 whole entry): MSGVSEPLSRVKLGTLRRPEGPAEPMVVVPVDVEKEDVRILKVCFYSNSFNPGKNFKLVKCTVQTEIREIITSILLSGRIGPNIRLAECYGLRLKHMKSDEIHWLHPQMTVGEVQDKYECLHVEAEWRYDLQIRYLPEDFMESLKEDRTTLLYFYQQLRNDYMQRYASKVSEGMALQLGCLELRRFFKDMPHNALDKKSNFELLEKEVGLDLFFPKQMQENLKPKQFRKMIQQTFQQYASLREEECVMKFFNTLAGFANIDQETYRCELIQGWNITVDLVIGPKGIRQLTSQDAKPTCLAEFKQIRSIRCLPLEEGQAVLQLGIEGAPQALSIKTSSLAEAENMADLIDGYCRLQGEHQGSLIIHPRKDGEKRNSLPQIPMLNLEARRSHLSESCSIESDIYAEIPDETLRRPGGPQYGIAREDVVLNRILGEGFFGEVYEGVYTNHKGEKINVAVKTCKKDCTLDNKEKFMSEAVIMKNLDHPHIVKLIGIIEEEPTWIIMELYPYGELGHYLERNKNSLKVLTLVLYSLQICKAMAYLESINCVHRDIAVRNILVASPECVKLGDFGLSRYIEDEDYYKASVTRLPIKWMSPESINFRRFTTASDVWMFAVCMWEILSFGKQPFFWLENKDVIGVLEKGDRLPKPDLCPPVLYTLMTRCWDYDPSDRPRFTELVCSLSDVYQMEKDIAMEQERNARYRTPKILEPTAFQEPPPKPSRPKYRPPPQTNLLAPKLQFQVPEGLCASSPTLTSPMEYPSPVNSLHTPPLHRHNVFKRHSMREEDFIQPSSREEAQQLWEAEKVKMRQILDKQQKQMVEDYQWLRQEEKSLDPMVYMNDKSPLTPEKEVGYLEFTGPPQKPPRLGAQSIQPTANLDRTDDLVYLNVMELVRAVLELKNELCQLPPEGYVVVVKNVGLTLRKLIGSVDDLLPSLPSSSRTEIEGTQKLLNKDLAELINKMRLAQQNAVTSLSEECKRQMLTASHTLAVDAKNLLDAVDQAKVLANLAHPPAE
Chain of plurality of kinases (Table 5) (Homo sapiens, UniProt P06241) (P06241 whole entry): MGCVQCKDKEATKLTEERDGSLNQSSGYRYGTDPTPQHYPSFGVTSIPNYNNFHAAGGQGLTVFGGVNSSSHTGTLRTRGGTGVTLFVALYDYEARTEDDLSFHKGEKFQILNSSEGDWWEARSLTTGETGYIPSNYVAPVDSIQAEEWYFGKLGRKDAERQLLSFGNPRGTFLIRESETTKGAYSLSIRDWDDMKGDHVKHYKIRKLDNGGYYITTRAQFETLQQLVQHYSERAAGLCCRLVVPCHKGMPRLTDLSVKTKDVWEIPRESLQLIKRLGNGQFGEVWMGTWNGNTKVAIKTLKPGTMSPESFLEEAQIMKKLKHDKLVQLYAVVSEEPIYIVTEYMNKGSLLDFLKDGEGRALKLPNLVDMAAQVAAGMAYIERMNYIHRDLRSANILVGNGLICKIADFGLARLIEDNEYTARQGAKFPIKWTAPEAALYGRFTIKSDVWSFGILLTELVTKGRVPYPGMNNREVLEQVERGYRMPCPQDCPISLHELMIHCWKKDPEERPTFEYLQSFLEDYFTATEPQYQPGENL
Chain of plurality of kinases (Table 5) (Homo sapiens, UniProt Q9Y6R4) (Q9Y6R4 whole entry): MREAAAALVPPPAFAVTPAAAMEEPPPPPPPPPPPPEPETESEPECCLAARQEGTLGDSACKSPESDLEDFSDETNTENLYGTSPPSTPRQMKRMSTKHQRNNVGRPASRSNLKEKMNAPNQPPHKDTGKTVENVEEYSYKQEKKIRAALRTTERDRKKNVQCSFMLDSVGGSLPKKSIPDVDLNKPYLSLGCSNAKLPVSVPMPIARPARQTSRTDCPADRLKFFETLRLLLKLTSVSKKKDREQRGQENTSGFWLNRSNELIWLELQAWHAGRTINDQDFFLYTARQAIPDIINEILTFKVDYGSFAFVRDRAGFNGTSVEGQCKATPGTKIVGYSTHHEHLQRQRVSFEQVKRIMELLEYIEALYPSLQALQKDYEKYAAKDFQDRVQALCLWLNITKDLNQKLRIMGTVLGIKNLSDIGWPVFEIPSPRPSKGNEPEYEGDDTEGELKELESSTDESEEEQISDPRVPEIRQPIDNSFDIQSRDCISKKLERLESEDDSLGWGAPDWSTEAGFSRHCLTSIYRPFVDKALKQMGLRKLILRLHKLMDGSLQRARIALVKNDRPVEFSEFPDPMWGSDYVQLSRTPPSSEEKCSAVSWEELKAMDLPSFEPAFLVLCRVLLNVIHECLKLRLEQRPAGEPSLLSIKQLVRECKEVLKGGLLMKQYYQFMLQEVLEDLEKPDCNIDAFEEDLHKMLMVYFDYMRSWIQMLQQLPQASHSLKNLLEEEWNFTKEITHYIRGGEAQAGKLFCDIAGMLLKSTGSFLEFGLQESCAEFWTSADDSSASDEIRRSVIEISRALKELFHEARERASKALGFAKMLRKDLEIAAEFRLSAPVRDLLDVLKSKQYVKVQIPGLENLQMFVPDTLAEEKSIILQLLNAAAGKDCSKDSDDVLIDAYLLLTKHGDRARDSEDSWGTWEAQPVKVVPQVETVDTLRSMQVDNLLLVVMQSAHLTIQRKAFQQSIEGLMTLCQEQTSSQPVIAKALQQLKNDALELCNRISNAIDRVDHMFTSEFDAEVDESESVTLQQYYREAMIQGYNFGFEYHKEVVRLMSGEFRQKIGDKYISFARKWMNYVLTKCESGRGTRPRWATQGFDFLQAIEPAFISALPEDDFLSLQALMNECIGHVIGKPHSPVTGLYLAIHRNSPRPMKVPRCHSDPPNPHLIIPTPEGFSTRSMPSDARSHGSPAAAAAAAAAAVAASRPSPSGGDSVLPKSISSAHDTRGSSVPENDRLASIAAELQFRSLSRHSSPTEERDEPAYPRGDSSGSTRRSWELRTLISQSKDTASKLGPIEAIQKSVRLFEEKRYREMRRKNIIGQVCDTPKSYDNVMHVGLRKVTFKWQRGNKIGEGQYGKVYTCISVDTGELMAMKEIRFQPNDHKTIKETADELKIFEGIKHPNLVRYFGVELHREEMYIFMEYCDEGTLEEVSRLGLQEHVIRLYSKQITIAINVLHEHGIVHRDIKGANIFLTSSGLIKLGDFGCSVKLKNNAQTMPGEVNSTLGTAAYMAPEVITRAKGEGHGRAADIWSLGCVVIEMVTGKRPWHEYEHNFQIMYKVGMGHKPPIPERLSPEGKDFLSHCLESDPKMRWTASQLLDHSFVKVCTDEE

SMILES	Inhibition level, STK4 ([1]; inhibitor 100 uM)	Inhibition level, FYN [2, 11]	Inhibition level, PIM1 ([3]; plate C2, inhibitor 100 uM)	Inhibition level, MAP3K4 [4]	Inhibition level, PTK2B ([5]; inhibitor 100 uM)	Inhibition level, STK13 [6]	Inhibition level, CDKL3 [7]	Inhibition level, STK6 ([8]; inhibitor 100 uM)	Inhibition level, DAPK2 ([9]; inhibitor 100 uM)	Inhibition level, TBK1 [10]	other results
N#C/C(=C/c1ccc(O)c(O)c1)C(=O)NCc1ccccc1 [AG 490]	0	2	2	2	2	2	2	2	2	2	
COc1cc2ncnc(Nc3cccc(Cl)c3)c2cc1OC [AG 1478]	1	2	1	1	2	1	1	0	0	2	
O=c1c(-c2ccc(O)cc2)coc2cc(O)cc(O)c12 [Genistein]	0	2	2	1	2	2	0	2	2	2	Inhibition level, STK4 ([1]; Genistein, conc. not given): 0; Inhibition level, FYN ([2]; plate A4, Domain 0, Genistein <3.7 mM): 1; Inhibition level, PIM1 ([3]; plate C2, Genistein <3.7 mM): 0; Inhibition level, STK6 ([8]; Genistein <3.7 mM): 0; Inhibition level, DAPK2 ([9]; Genistein, conc. not given): 0
O=S(=O)(NCCNC/C=C/c1ccc(Br)cc1)c1cccc2cnccc12 [H-89]	2	2	2	1	1	1	1	0	2	2	
CC(C)(C)n1nc(-c2ccc(Cl)cc2)c2c(N)ncnc21 [PP2]	2		2	2	2	2	2	2	2	1	
O=c1c(O)c(-c2ccc(O)c(O)c2)oc2cc(O)cc(O)c12 [Quercetin]	0			0	1	2	0		0	0	
Cn1cc(C2=C(c3cn(CCCSC(=N)N)c4ccccc34)C(=O)NC2=O)c2ccccc21 [Ro-31-8220]	2	2	0	2	2	2	2	2	2	2	Inhibition level, STK4 ([1]; Ro-31-8220, conc. not given): 0; Inhibition level, FYN ([2]; plate A4, Domain 0, Ro-31-8220 90 uM): 0; Inhibition level, PIM1 ([3]; plate C2, Ro-31-8220 90 uM): 2; Inhibition level, PTK2B ([5]; Ro-31-8220 90 uM): 0; Inhibition level, STK6 ([8]; Ro-31-8220 90 uM): 0; Inhibition level, DAPK2 ([9]; Ro-31-8220, conc. not given): 2
CC(=O)c1c(O)c(C)c(O)c(Cc2c(O)c3c(c(C(=O)/C=C/c4ccccc4)c2O)OC(C)(C)C=C3)c1O [Rottlerin (Mallotoxin)]	0	2	2	1	2	1	1	2	1	1	
CN[C@@H]1C[C@H]2O[C@@](C)([C@@H]1OC)n1c3ccccc3c3c4c(c5c6ccccc6n2c5c31)C(=O)NC4 [Staurosporine]											Inhibition level, STK4 ([1]; Staurosporine, conc. not given): 0; Inhibition level, FYN [2]: 2; Inhibition level, PIM1 [3]: 2; Inhibition level, PTK2B ([5]; Staurosporine 21.5 uM): 0; Inhibition level, STK6 ([8]; Staurosporine 21.5 uM): 0; Inhibition level, DAPK2 ([9]; Staurosporine, conc. not given): 2
